Assay results reported in patent publication US20080153792A1, “Drug Identification and Treatment Method” (priority 2006, published 2008).
Entries after “also recorded” stand apart in the source; their conditions may differ. Where two headings read alike, the source gives them in different places.

Experiments:
[1] = system: NF-κB; assay: NF-κB-bla THP-1 β-lactamase reporter assay; type: cell-based, human
[2] = system: CD1 male mice, carrageenan-λ induced pleurisy; assay: carrageenan-λ induced lung (pleural cavity) inflammation in mice; type: in vivo, mouse; conditions: for number of neutrophils relative to untreated carrageenan-λ control (100%): 4 h after carrageenan
[3] = system: MG-63 cells; assay: reversal of glucocorticoid effects in MG-63 osteosarcoma cells; type: cell-based, human
[4] = system: female SJL mice, EAE; assay: experimental autoimmune encephalomyelitis (EAE), PLP-induced, Example 23; type: in vivo, mouse; conditions: for course of EAE compared to vehicle-treated mice: 0.1 mg q.d. po from clinical onset; for mean cumulative score, treatment period (day 1 to 30): vehicle 24.8±7.8; for mean cumulative score, follow-up period (day 31 to day 54): vehicle 22.7±15.8
[5] = metabolic stability in liver microsomes: human; conditions: 10 min
Procedure: (§1) The protocol was performed as follows. […] (2) Set up samples as follows. […] (4) The internal standard/acetonitrile solution.

[6] = metabolic stability in liver microsomes: mouse; conditions: 10 min
Procedure: as §1

[7] = Homo sapiens, THP-1, read-out: IC50, this protocol
[8] = anti-inflammatory activity in this protocol, read-out: IC50
[9] = 0.1 mg q.d. po from clinical onset to day 30
[10] = Homo sapiens, THP-1, read-out: IC50 for inhibition of NF-κB activation, after LPS stimulation, 50% of the maximum inhibition the compound can induce, averages of 2-4 assays
[11] = after LPS stimulation, 50% of the maximum inhibition the compound can induce, averages of 2-4 assays, read-out: IC50 for inhibition of NF-κB activation
[12] = compounds increased NF-κB activity, read-out: IC50 of compounds that increased NF-κB activity

Molecule: C[C@]12CC[C@H]3[C@@H](CCC4C[C@H](O)CC[C@@]43C)[C@@H]1C[C@@H](O)[C@@H]2O (stereo partly drawn) [3α,16α,17β-trihydroxyandrostane]
- IC50 [1, 7]: 6900 nM

Molecule: C[C@]12CC[C@H]3[C@@H](CCC4C[C@H](O)CC[C@@]43C)[C@@H]1C[C@H](O)[C@@H]2O (stereo partly drawn) [3α,16β,17β-trihydroxyandrostane]
- IC50 [1, 7]: 19000 nM
- number of neutrophils relative to untreated carrageenan-λ control (100%) ([2]; 0.001 mg s.c. 24 h and 1 h before carrageenan-λ): 95%
- number of neutrophils relative to untreated carrageenan-λ control (100%) ([2]; 0.01 mg s.c. 24 h and 1 h before carrageenan-λ): 50%
- number of neutrophils in the pleura ([2]; 0.1 mg and 0.01 mg doses s.c.): significant reduction
- number of neutrophils relative to untreated carrageenan-λ control (100%) ([2]; 0.1 mg s.c. 24 h and 1 h before carrageenan-λ): 42%

Molecule: C[C@]12CC[C@H]3[C@@H](CCC4=C[C@H](O)CC[C@@]43C)[C@@H]1CC[C@@H]2O [3α,17β-dihydroxyandrost-4-ene]
- dexamethasone induced 11β-HSD mRNA ([3]; similar protocols): decrease
- reversal of dexamethasone-induced suppression of IL-8 and IL-6 ([3]; similar protocols): statistically significant reversal

Molecule: CC12CCC(O)(C(F)(F)C(F)(F)F)C=C1CCC1C2CCC2(C)C(O)CCC12 (stereo not drawn) [3α-pentafluoroethylandrost-4-ene-3β,17β-diol]
- IC50 [1, 8]: 3.1 nM

Molecule: C[C@]12CC[C@H]3[C@@H](CC=C4C[C@](O)(C(F)(F)C(F)(F)F)CC[C@@]43C)[C@@H]1CC[C@@H]2O [3α-pentafluoroethylandrost-5-ene-3β,17β-diol]
- IC50 [1, 8]: 17 nM
- maximum NF-κB inhibition ([1]; this protocol): 50%

Molecule: C[C@]12CC[C@H]3[C@@H](CC=C4C[C@](O)(C(F)(F)F)CC[C@@]43C)[C@@H]1CC[C@@H]2O [3α-trifluoromethylandrost-5-ene-3β,17β-diol]
- course of EAE compared to vehicle-treated mice [4]: significantly improved course of EAE
- mean cumulative score, treatment period (day 1 to 30) [4, 9]: 11.2±4.8
- mean cumulative score, follow-up period (day 31 to day 54) ([4]; after end of treatment): 10.8±10.3

Molecule: C[C@]12CC[C@H]3[C@@H]([C@H](O)C=C4C[C@@H](O)CC[C@@]43C)[C@@H]1CC[C@@H]2O [3β,7α,17β-trihydroxyandrost-5-ene]
- IC50 [1, 10]: > 10000 nM

Molecule: C[C@]12C[C@H](O)[C@H]3[C@@H]([C@@H](O)C=C4C[C@@H](O)CC[C@@]43C)[C@@H]1CC[C@@H]2O [3β,7β,11β,17β-tetrahydroxyandrost-5-ene]
- IC50 [1, 10]: > 10000 nM

Molecule: C[C@]12CC[C@H](O)CC1=C[C@H](O)[C@@H]1[C@@H]2CC[C@@]2(C)[C@H]1CC[C@]2(C)O [3β,7β,17β-trihydroxy-17α-methylandrost-5-ene]
- osteoprotegerin levels in the presence of 30 nM dexamethasone ([3]; 10 nM compound): normal osteoprotegerin levels

Molecule: CC12CCC(O)CC1=CC(O)C1C2CCC2(C)C1CCC2(O)C(F)(F)F (stereo not drawn) [3β,7β,17β-trihydroxy-17α-trifluoromethylandrost-5-ene]
- IC50 [1, 11]: > 10000 nM
- osteoprotegerin levels in the presence of 30 nM dexamethasone ([3]; 1 μM compound): normal or basal osteoprotegerin levels

Molecule: C[C@]12CC[C@H](O)CC1=CC[C@@H]1[C@@H]2[C@H](O)C[C@]2(C)C(=O)CC[C@@H]12 [3β,11α-dihydroxy-17-oxoandrost-5-ene]
- IC50 [1, 10]: > 10000 nM

Molecule: C[C@]12CC[C@H]3[C@@H](CC=C4C[C@@H](O)CC[C@@]43C)[C@@H]1CC[C@H]2O [3β,17α-dihydroxyandrost-5-ene]
- IC50 [1, 7]: > 10000 nM

Molecule: C[C@@]1(O)CC[C@@]2(C)[C@@H](CC[C@@H]3[C@@H]2CC[C@@]2(C)[C@H]3CC[C@]2(C)O)C1 [3β,17α-dimethylandrostane-3α,17β-diol]
- IC50 [1, 12]: 40 nM

Molecule: CC12CCC(O)CC1=CC(=O)C1C2CCC2(C)C1CCC2(C)O (stereo not drawn) [3β,17β-dihydroxy-7-oxo-17α-methylandrost-5-ene]
- IC50 [1, 11]: > 10000 nM
- osteoprotegerin levels in the presence of 30 nM dexamethasone ([3]; 100 nM compound): increased osteoprotegerin levels

Molecule: CC(=O)O[C@H]1CC[C@@]2(C)C(=C[C@H](O)[C@H]3[C@@H]4CC[C@H](O)[C@@]4(C)CC(=O)[C@@H]32)C1 [3β-acetoxy-7β,17β-dihydroxy-11-oxoandrost-5-ene]
- IC50 [1, 7]: 1000 nM
- maximum NF-κB inhibition ([1]; this protocol): 65%

Molecule: C[C@]12CC[C@H]3[C@@H](CCC4C[C@@H](C(=O)CN)CC[C@@]43C)[C@@H]1CC[C@@H]2O (stereo partly drawn) [3β-glycylandrostane-17β-ol]
- IC50 ([1]; Homo sapiens, THP-1, read-out: IC50, anti-inflammatory activity in this protocol): 1 nM

Molecule: C[C@]12CC[C@H](O)CC1CC(=O)[C@@H]1[C@@H]2CC[C@]2(C)C(=O)CC[C@@H]12 (stereo partly drawn) [3β-hydroxyandrostane-7,17-dione]
- IC50 [1, 7]: > 10000 nM

Molecule: C[C@]12CC[C@H](O)C[C@@H]1CC[C@@H]1[C@@H]2CC[C@]2(C)[C@@H](O)C(=NO)C[C@@H]12 [5α-androstane-3β,17β-diol-16-oxime]
- course of EAE compared to vehicle-treated mice [4]: very similar to that observed in the vehicle-treated mice

Molecule: CC(=O)O[C@@H]1C[C@H]2[C@@H]3[C@@H](O)C=C4C[C@@H](O)CC[C@]4(C)[C@H]3CC[C@]2(C)[C@H]1O [16α-acetoxy-3β,7β,17β-trihydroxyandrost-5-ene]
- IC50 ([1]; Homo sapiens, THP-1, after LPS stimulation, 50% of the maximum inhibition the compound can induce, averages of 2-4 assays, read-out: IC50 for inhibition of NF-κB activation): > 10000 nM

Molecule: C[C@]12CC[C@H]3[C@@H](CC=C4C[C@@H](O)CC[C@@]43C)[C@@H]1C[C@@H](Br)[C@@H]2O [16α-bromo-3β,17β-dihydroxyandrost-5-ene]
- IC50 [1, 7]: > 10000 nM

Molecule: C[C@]12CCCCC1=CC[C@@H]1[C@@H]2CC[C@]2(C)C(=O)[C@H](F)C[C@@H]12 [16α-fluoroandrost-5-ene-17-one]
- IC50 [1, 7]: 30000 nM

Molecule: C[C@]12CCCCC1CC[C@@H]1[C@@H]2CC[C@]2(C)C(=O)[C@H](F)C[C@@H]12 (stereo partly drawn) [16α-fluoroandrostane-17-one]
- IC50 [1, 7]: > 10000 nM

Molecule: C[C@]12CC[C@H](O)CC1=CC[C@@H]1[C@@H]2CC[C@]2(C)C(=O)[C@@H](Br)C[C@@H]12 [16β-bromo-3β-hydroxyandrost-5-ene-17-one]
- IC50 [1, 7]: > 10000 nM

Molecule: C[C@]12CC[C@H](O)C[C@@H]1CC[C@@H]1[C@@H]2CC[C@]2(C)C(=O)[C@@H](Br)C[C@@H]12 [16β-bromoepiandrosterone]
- maximum NF-κB inhibition ([1]; this protocol): 100%

Molecule: C[C@]12CCCCC1=C[C@H](O)[C@@H]1[C@@H]2CC[C@]2(C)C(=O)[C@@H](F)C[C@@H]12 [16β-fluoroandrost-5-ene-7β-ol-17-one]
- IC50 [1, 8]: 1.5 nM

Molecule: C#C[C@]1(O)CC[C@H]2[C@@H]3CCC4=CC(=O)CC[C@]4(C)[C@H]3CC[C@@]21C [17α-ethynylandrost-4-ene-3-one-17β-ol]
- maximum NF-κB inhibition ([1]; this protocol): 80%
- IC50 ([1]; this protocol, read-out: IC50): 2900 nM

Molecule: C[C@]12CC[C@H](O)CC1=CC[C@@H]1[C@@H]2CC[C@@]2(C)[C@H]1CC[C@@]2(O)C(F)(F)F [17α-trifluoromethylandrost-5-ene-3β,17β-diol]
- course of EAE compared to vehicle-treated mice [4]: significantly improved course of EAE

Molecule: CC12CCC(O)CC1CCC1C2CCC2(C)C1CCC2(O)C(F)(F)F (stereo not drawn) [17α-trifluoromethylandrostane-3α,17β-diol]
- IC50 [1, 8]: 190 nM

Molecule: C#C[C@@]1(O)CC[C@H]2[C@@H]3[C@@H](O)C=C4C[C@@H](O)CC[C@]4(C)[C@H]3CC[C@@]21C [17β-ethynylandrost-5-ene-3β,7β,17α-triol]
- EAE incidence at the end of the treatment period ([4]; 0.1 mg q.d. po): 57.1%
- course of EAE compared to vehicle-treated mice [4]: trend toward reduced cumulative score and duration
- duration of the disease ([4]; 0.1 mg q.d. po from clinical onset to day 30, vehicle 12.3±4.3): 7 ± 7.9 days
- mean cumulative score, treatment period (day 1 to 30) [4, 9]: 14.9±17.6
- EAE incidence at the end of the follow-up period ([4]; after end of treatment): 85.7%
- mean cumulative score, follow-up period (day 31 to day 54) ([4]; after end of treatment): 18.4±20.6

Molecule: C[C@]12CC[C@H]3[C@@H](CCC4C[C@@H](O)CC[C@@]43C)[C@@H]1CC[C@@H]2C(=O)CN (stereo partly drawn) [17β-glycylandrostane-3β-ol]
- IC50 [1, 7]: 420 nM

Molecule: Cc1cc(C)c(/C=C2\C(=O)Nc3ccccc32)[nH]1 [SU5416, Z-3-[(2,4-dimethylpyrrol-5-yl)methylidenyl]-2-indolinone, reference compound]
- course of EAE compared to vehicle-treated mice [4]: very similar to that observed in the vehicle-treated mice; also recorded: ineffective
- mean cumulative score, treatment period (day 1 to 30) [4, 9]: 25.5±8.9
- mean cumulative score, follow-up period (day 31 to day 54) ([4]; after end of treatment): 35.5±13.2

Molecule: C[C@]12CC[C@H]3[C@@H]([C@H](O)C=C4C[C@H](O)CC[C@@]43C)[C@@H]1C[C@@H](O)[C@@H]2O [androst-5-ene-3α,7α,16α,17β-tetrol]
- parent remaining human microsomes [5]: 100% (10 min)
- parent remaining mouse microsomes [6]: 100% (10 min)

Molecule: C[C@]12CC[C@H]3[C@@H](CC=C4C[C@H](O)CC[C@@]43C)[C@@H]1CC[C@@H]2O [androst-5-ene-3α,17β-diol]
- IC50 [1, 7]: > 10000 nM

Molecule: C[C@]12CC[C@H](O)CC1=C[C@@H](O)[C@@H]1[C@@H]2CC[C@]2(C)C(=O)[C@H](O)C[C@@H]12 [androst-5-ene-3β,7α,16α-triol-17-one]
- NF-κB activity compared to control cells ([1]; compound increased NF-κB activity): 140%
- IC50 [1, 12]: 1.3 nM

Molecule: C[C@]12CC[C@H]3[C@@H](C(=NO)C=C4C[C@@H](O)CC[C@@]43C)[C@@H]1CC[C@@H]2O [androst-5-ene-3β,17β-diol-7-oxime]
- reversal of the decrease in osteoprotegerin in the presence of 30 nM dexamethasone ([3]; concentration not given): partially reversed

Molecule: C[C@]12C[C@H](O)[C@H]3[C@@H](CC=C4C[C@@H](O)CC[C@@]43C)[C@@H]1CC[C@@H]2O [androst-5-ene-3β, 11β,17β-triol]
- IC50 [1, 7]: > 10000 nM

Molecule: C[C@]12CC[C@H]3[C@@H](CC=C4C[C@@H](O)CC[C@@]43C)[C@@H]1CC[C@@H]2OC(=O)CCC(=O)O [androst-5-ene-3β-ol-17β-succinyl ester]
- IC50 [1, 8]: 0.2 nM

Molecule: C[C@]12CC[C@H](O)CC1CC[C@@H]1[C@@H]2CC[C@]2(C)C(=NO)[C@@H](O)C[C@@H]12 (stereo partly drawn) [androstane-3β,16β-diol-17-oxime]
- IC50 ([1]; this protocol, read-out: IC50): 1900 nM

Molecule: TNFα
- EC50 for activation of NF-κB ([1]; positive control assays, 1 hour β-lactamase substrate incubation): 0.20 ng/mL
